Measured values reported in US9302999B2, “Substituted triazoles as herbicides” (E. I. DU PONT DE NEMOURS AND COMPANY, priority 2012, dated 2016).
Where two headings read alike, the source gives them in different places.

Columns and labels:
Type in all cases: in vivo
[1] = tested on: wheat (Triticum aestivum); test: Test A pre-/postemergence: wheat; conditions: Triticum aestivum, 240 h; for plant injury at 125 g/ha: 125 g ai/ha; for plant injury at 500 g/ha: 500 g ai/ha
In short: (§1)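 Rating scale 0–100 (100 = complete control), visual, ~10 days after application in the greenhouse. Applications: preemergence directed soil spray; postemergence at 1–2 leaves.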

[2] = tested on: pigweed (Amaranthus retroflexus); test: Test A pre-/postemergence: pigweed; conditions: Amaranthus retroflexus, 240 h; for pest or weed control at 125 g/ha: 125 g ai/ha; for pest or weed control at 500 g/ha: 500 g ai/ha
In short: as §1

[3] = tested on: foxtail, giant (giant foxtail, Setaria faberii); test: Test C pre-/postemergence: foxtail, giant
Description: (§2) Seeds of plant species selected from blackgrass (Alopecurus myosuroides), bromegrass, downy (downy bromegrass, Bromus tectorum), foxtail, green (green foxtail, Setaria viridis), ryegrass, Italian (Italian ryegrass, Lolium multiflorum), winter wheat (Triticum aestivum), wild oat (Avena fatua), galium (catchweed bedstraw, Galium aparine), bermudagrass (Cynodon dactylon), surinam grass (Brachiaria decumbens), cocklebur (common cocklebur, Xanthium strumarium), corn (Zea mays), large crabgrass (Digitaria sanguinalis), woolly cupgrass (Eriochloa villosa), foxtail, giant (giant foxtail, Setaria faberii), goosegrass (Eleusine indica), johnsongrass (Sorghum halepense), kochia (Kochia scoparia), lambsquarters (Chenopodium album), morningglory (Ipomoea coccinea), nightshade (eastern black nightshade, Solanum ptycanthum), nutsedge, yellow (yellow nutsedge, Cyperus esculentus), pigweed (Amaranthus retroflexus), ragweed (common ragweed, Ambrosia elation), soybean (Glycine max), common (oilseed) sunflower (Helianthus annuus), Russian thistle (Salsola kali) and velvetleaf (Abutilon theophrasti) were planted into a blend of loam soil and sand and treated preemergence with test chemicals formulated in a non-phytotoxic solvent mixture which included a surfactant.
(§3) At the same time, plants selected from these crop and weed species and also barley (winter barley, Hordeum vulgare), canarygrass (Phalaris minor), chickweed (common chickweed, Stellaria media) windgrass (Apera spica-venti) and deadnettle (henbit deadnettle, Lamium amplexicaule) were planted in pots containing Redi-Earth® planting medium (Scotts Company, 14111 Scottslawn Road, Marysville, Ohio 43041) comprising spaghnum peat moss, vermiculite, wetting agent and starter nutrients and treated with postemergence applications of test chemicals formulated in the same manner. Plants ranged in height from 2 to 18 cm (1- to 4-leaf stage) for postemergence treatments.
(§4) Treated plants and controls were maintained in a greenhouse for 13 to 15 days, after which time all species were compared to controls and visually evaluated. Plant response ratings, summarized in Table C, are based on a scale of 0 to 100 where 0 is no effect and 100 is complete control. A dash (-) response means no test result.

[4] = tested on: morningglory (Ipomoea coccinea); test: Test C pre-/postemergence: morningglory
Description: as §2, §3, §4

[5] = tested on: galium (catchweed bedstraw, Galium aparine); test: Test C pre-/postemergence: galium
Description: as §2, §3, §4

[6] = tested on: large crabgrass (Digitaria sanguinalis); test: Test C pre-/postemergence: large crabgrass
Description: as §2, §3, §4

[7] = tested on: lambsquarters (Chenopodium album); test: Test C pre-/postemergence: lambsquarters
Description: as §2, §3, §4

[8] = tested on: corn (Zea mays); test: Test C pre-/postemergence: corn
Description: as §2, §3, §4

[9] = tested on: ryegrass, Italian (Italian ryegrass, Lolium multiflorum); test: Test C pre-/postemergence: ryegrass, Italian
Description: as §2, §3, §4

[10] = post-emergence, Postemergence, 0 to 100 scale, 0 is no effect, 100 is complete control, read-out: Wheat plant response rating
[11] = post-emergence, Postemergence, visual rating on 0 to 100 scale (0 no effect, 100 complete control), approximately ten days, read-out: Wheat plant response rating
[12] = pre-emergence, Preemergence, 0 to 100 scale (0 no effect, 100 complete control), read-out: Plant response rating, Wheat
[13] = pre-emergence, Preemergence, 0 to 100 scale, 0 is no effect, 100 is complete control, read-out: Plant response rating, Wheat
[14] = post-emergence, Postemergence, 0 to 100 scale, 0 is no effect, 100 is complete control, read-out: Pigweed plant response rating
[15] = post-emergence, Postemergence, visual rating on 0 to 100 scale (0 no effect, 100 complete control), approximately ten days, read-out: Pigweed plant response rating
[16] = pre-emergence, Preemergence, 0 to 100 scale (0 no effect, 100 complete control), read-out: Plant response rating, Pigweed
[17] = pre-emergence, Preemergence, 0 to 100 scale, 0 is no effect, 100 is complete control, read-out: Plant response rating, Pigweed
[18] = Postemergence, 31 g ai/ha, scale 0 to 100 (0 no effect, 100 complete control)
[19] = Postemergence, 62 g ai/ha, scale 0 to 100 (0 no effect, 100 complete control)
[20] = Postemergence, 125 g ai/ha, scale 0 to 100, 0 no effect, 100 complete control
[21] = Postemergence, 250 g ai/ha, scale 0 to 100
[22] = Preemergence, 31 g ai/ha, scale of 0 to 100, 0 is no effect, 100 is complete control
[23] = Preemergence, 62 g ai/ha, scale of 0 to 100, 0 is no effect, 100 is complete control
[24] = Preemergence, 125 g ai/ha, scale 0 to 100, 0 no effect, 100 complete control
[25] = Preemergence, 250 g ai/ha, scale 0 to 100, 0 no effect, 100 complete control
[26] = pre-emergence, Preemergence, 0 to 100 scale where 0 is no effect and 100 is complete control, read-out: Plant response rating, Wheat
[27] = pre-emergence, Preemergence, 0 to 100 scale where 0 is no effect and 100 is complete control, read-out: Plant response rating, Pigweed

**Q.** `Cc1nn(-c2ccc(C(F)(F)F)cc2)nc1Oc1csc(C(F)(F)F)c1` [Compound 1, 4-methyl-2-[4-(trifluoromethyl)phenyl]-5-[[5-(trifluoromethyl)-3-thienyl]oxy]-2H-1,2,3-triazole] was tested. Which plant injury at 125 g/ha [1, 10] did it give?
**A.** Its plant injury at 125 g/ha is 10%.

**Q.** And the plant injury at 500 g/ha [1, 11]?
**A.** The plant injury at 500 g/ha was 20%.

**Q.** And the plant injury at 125 g/ha [1, 12]?
**A.** Its plant injury at 125 g/ha is 0%.

**Q.** What about the plant injury at 500 g/ha [1, 13] of the same molecule?
**A.** Its plant injury at 500 g/ha is 0%.

**Q.** And the pest or weed control at 125 g/ha [2, 14]?
**A.** The pest or weed control at 125 g/ha was 90%.

**Q.** What about the pest or weed control at 500 g/ha [2, 15] of the same molecule?
**A.** Its pest or weed control at 500 g/ha is 100%.

**Q.** And the pest or weed control at 125 g/ha [2, 16]?
**A.** The pest or weed control at 125 g/ha was 60%.

**Q.** What about the pest or weed control at 500 g/ha [2, 17] of the same molecule?
**A.** Its pest or weed control at 500 g/ha is 90%.

**Q.** What does the source list for `FC(F)(F)COc1nn(-c2ccc(C(F)(F)F)cc2)nc1Cc1ccnc(C(F)(F)F)c1` [Compound 14, 4-[[5-(2,2,2-trifluoroethoxy)-2-[4-(trifluoromethyl)phenyl]-2H-1,2,3-triazol-4-yl]methyl]-2-(trifluoromethyl)pyridine]?
**A.** Plant response rating, Foxtail, Giant [3, 18]: 10; Plant response rating, Foxtail, Giant [3, 19]: 15; Plant response rating, Foxtail, Giant [3, 20]: 30; Plant response rating, Foxtail, Giant [3, 21]: 35; Plant response rating, Foxtail, Giant [3, 22]: 95; Plant response rating, Foxtail, Giant [3, 23]: 98; Plant response rating, Foxtail, Giant [3, 24]: 100; Plant response rating, Foxtail, Giant [3, 25]: 100; Plant response rating, Morningglory [4, 18]: 75; Plant response rating, Morningglory [4, 19]: 80; Plant response rating, Morningglory [4, 20]: 80; Plant response rating, Morningglory [4, 21]: 95; Plant response rating, Morningglory [4, 22]: 10; Plant response rating, Morningglory [4, 23]: 10; Plant response rating, Morningglory [4, 24]: 55; Plant response rating, Morningglory [4, 25]: 65; Plant response rating, Galium [5, 18]: 60; Plant response rating, Galium [5, 19]: 80; Plant response rating, Galium [5, 20]: 80; Plant response rating, Galium [5, 21]: 80; Plant response rating, Galium [5, 22]: 20; Plant response rating, Galium [5, 23]: 90; Plant response rating, Galium [5, 24]: 100; Plant response rating, Galium [5, 25]: 100; Plant response rating, Crabgrass, Large [6, 18]: 10; Plant response rating, Crabgrass, Large [6, 19]: 45; Plant response rating, Crabgrass, Large [6, 20]: 45; Plant response rating, Crabgrass, Large [6, 21]: 60; Plant response rating, Crabgrass, Large [6, 22]: 95; Plant response rating, Crabgrass, Large [6, 23]: 100; Plant response rating, Crabgrass, Large [6, 24]: 100; Plant response rating, Crabgrass, Large [6, 25]: 100; Plant response rating, Lambsquarters [7, 18]: 100; Plant response rating, Lambsquarters [7, 19]: 100; Plant response rating, Lambsquarters [7, 20]: 100; Plant response rating, Lambsquarters [7, 21]: 100; Plant response rating, Lambsquarters [7, 22]: 95; Plant response rating, Lambsquarters [7, 23]: 100; Plant response rating, Lambsquarters [7, 24]: 100; Plant response rating, Lambsquarters [7, 25]: 100; Plant response rating, Corn [8, 18]: 5; Plant response rating, Corn [8, 19]: 10; Plant response rating, Corn [8, 20]: 15; Plant response rating, Corn [8, 21]: 15; Plant response rating, Corn [8, 22]: 0; Plant response rating, Corn ([8]; Preemergence, 62 g ai/ha, scale 0 to 100, 0 no effect, 100 complete control): 0; Plant response rating, Corn [8, 24]: 5; Plant response rating, Corn [8, 25]: 10; plant injury at 125 g/ha [1, 10]: 30%; plant injury at 500 g/ha [1, 11]: 50%; plant injury at 125 g/ha [1, 12]: 30%; plant injury at 500 g/ha [1, 13]: 50%; Plant response rating, Ryegrass, Italian [9, 18]: 30; Plant response rating, Ryegrass, Italian [9, 19]: 35; Plant response rating, Ryegrass, Italian [9, 20]: 35; Plant response rating, Ryegrass, Italian [9, 21]: 40; Plant response rating, Ryegrass, Italian [9, 22]: 10; Plant response rating, Ryegrass, Italian [9, 23]: 35; Plant response rating, Ryegrass, Italian [9, 24]: 60; Plant response rating, Ryegrass, Italian [9, 25]: 85; pest or weed control at 125 g/ha [2, 14]: 100%; pest or weed control at 500 g/ha [2, 15]: 100%; pest or weed control at 125 g/ha [2, 16]: 90%; pest or weed control at 500 g/ha [2, 17]: 100%

**Q.** Which results are given for `COCc1nn(-c2ccc(C(F)(F)F)cc2)nc1Oc1cccc(OC(F)(F)F)c1` [Compound 115, 4-(methoxymethyl)-5-[3-(trifluoromethoxy)phenoxy]-2-[4-(trifluoromethyl)phenyl]-2H-1,2,3-triazole]?
**A.** plant injury at 125 g/ha [1, 10]: 10%; plant injury at 500 g/ha [1, 11]: 20%; plant injury at 125 g/ha [1, 26]: 0%; plant injury at 500 g/ha [1, 12]: 10%; pest or weed control at 125 g/ha [2, 14]: 80%; pest or weed control at 500 g/ha [2, 15]: 100%; pest or weed control at 125 g/ha [2, 27]: 100%; pest or weed control at 500 g/ha [2, 16]: 100%

**Q.** For `FCc1nn(-c2ccc(C(F)(F)F)cc2)nc1Oc1cccc(OC(F)(F)F)c1` [Compound 116, 4-(fluoromethyl)-5-[3-(trifluoromethoxy)phenoxy]-2-[4-(trifluoromethyl)phenyl]-2H-1,2,3-triazole], which plant injury at 125 g/ha [1, 10] is on record?
**A.** The plant injury at 125 g/ha was 10%.

**Q.** What about the plant injury at 500 g/ha [1, 11] of the same molecule?
**A.** Its plant injury at 500 g/ha is 10%.

**Q.** And the plant injury at 125 g/ha [1, 26]?
**A.** Its plant injury at 125 g/ha is 0%.

**Q.** What about the plant injury at 500 g/ha [1, 12] of the same molecule?
**A.** The plant injury at 500 g/ha was 10%.

**Q.** What about the pest or weed control at 125 g/ha [2, 14] of the same molecule?
**A.** The pest or weed control at 125 g/ha was 50%.

**Q.** And the pest or weed control at 500 g/ha [2, 15]?
**A.** Its pest or weed control at 500 g/ha is 100%.

**Q.** What about the pest or weed control at 125 g/ha [2, 27] of the same molecule?
**A.** The pest or weed control at 125 g/ha was 50%.

**Q.** What about the pest or weed control at 500 g/ha [2, 16] of the same molecule?
**A.** The pest or weed control at 500 g/ha was 100%.
